Data taken from article PMC4595804, “A strategy to discover decoy chemokine ligands with an anti-inflammatory activity” (Scientific Reports, 2015).

Experiments:
Assay type in all cases: cell-based
CCL17 N78V = target: T1, CCL17 N78V (Homo sapiens, UniProt Q92583, N78V); test: Calcium responses induced by chemokine mutant, neutraligand protocol; settings: 10 μM compound, 5 nM chemokine; remaining response
T1 construct: codes for the mature CCL17 or CCL22 with an N-terminal thioredoxin-hexahistidin (TRX- (His)6) tag; TRX-(His)6 (N, cleaved yes); made in house; host or cells: E. coli BL21 (DE3)
T1 sequence (Q92583 24-94 N78V): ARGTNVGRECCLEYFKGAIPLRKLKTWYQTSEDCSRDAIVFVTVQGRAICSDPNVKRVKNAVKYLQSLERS
Protocol: (§1) Dye loaded cells were placed in the FlexStation 3 (Molecular Devices). […] For the primary screening, the ligands (50μl of chemokine mixed with DMSO or test compounds) were added to the cells at 40 s, followed by digitonin addition (50μl) at 100 s to the cells. Molecules were screened at a final concentration of 2μg/ml with 5 nM CCL17 or CCL22. […] The calcium response values (height of peak response over baseline) were determined. Hits were selected by comparing the response amplitude at the time of the chemokine addition ± test compound. The Z’ factor[29] was calculated according to the following equation: Z’ = 1-(3SD+ + 3SD−)/|Ave+ − Ave−|, where SD+ and Ave+ are respectively the standard deviation and the mean value of the positive controls (chemokine + DMSO), while SD− and Ave− are respectively the standard deviation and the mean value of the negative controls (HEPES-BSA (0.1%) mixed with DMSO, or cells mixed with C-021). Hit molecules were confirmed by performing concentration-response curves and their half maximal inhibitory concentration (IC50) values were calculated using the Kaleidagraph software.
(§2) and the denaturated chemokines (disulfite bonds reduced by β-mercaptoethanol). The
(§3) chemokine activity was then, tested in the in vitro assays.
(§4) On-column refolding and purification of CCL5, CXCL8, CXCL10, CXCL11, CXCL12, CCL17
(§5) performed in a similar fashion as for CCL17 and CCL22. […]

CCL17 R80W = target: T2, CCL17 R80W (Homo sapiens, UniProt Q92583, R80W); test: as above; settings: 10 μM compound, 5 nM chemokine; remaining response
T2 construct: codes for the mature CCL17 or CCL22 with an N-terminal thioredoxin-hexahistidin (TRX- (His)6) tag; TRX-(His)6 (N, cleaved yes); made in house; host or cells: E. coli BL21 (DE3)
T2 sequence (Q92583 24-94 R80W): as the sequence (Q92583 24-94 N78V) above, with V55N, R57W counted along it
Protocol: as §1, §2, §3, §4, §5

CCL17 S74A = target: T3, CCL17 S74A (Homo sapiens, UniProt Q92583, S74A); test: as above; settings: 10 μM compound, 5 nM chemokine; remaining response
T3 construct: codes for the mature CCL17 or CCL22 with an N-terminal thioredoxin-hexahistidin (TRX- (His)6) tag; TRX-(His)6 (N, cleaved yes); made in house; host or cells: E. coli BL21 (DE3)
T3 sequence (Q92583 24-94 S74A): as the sequence (Q92583 24-94 N78V) above, with S51A, V55N counted along it
Protocol: as §1, §2, §3, §4, §5

CCL3 = target: T4, CCL3 (Homo sapiens, UniProt P10147); test: Selectivity, neutraligand protocol, EGFP-CCR5+ HEK cells; settings: 10 μM compound, 5 nM CCL3, EGFP-CCR5+ HEK cells
T4 construct: purchased R&D systems
T4 sequence (P10147 24-92): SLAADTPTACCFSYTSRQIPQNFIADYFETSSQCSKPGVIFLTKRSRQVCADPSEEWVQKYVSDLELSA
Protocol: (§6) Figure 6 (a) Selectivity of CCL17 and CCL22 neutraligands towards 10 chemokines according to the “neutraligand protocol”. […] Each column represents the mean (block) ± SD (bars) of n = 3 experiments performed in triplicate. *p < 0.05; **p < 0.01; ***p < 0.005 as compared to chemokine + DMSO. (b) Chemokine neutraligands inhibited CCR4 endocytosis induced by CCL22 or CCL17. EGFP-CCR4^+ HEK cells were incubated for 30 min with DMSO or chemokine (100 nM CCL22 or CCL17) in the presence or absence of test compounds. […] Cell surface EGFP-tagged CCR4 receptors were measured by EGFP antibody labeling and flow cytometry analysis. CCR4 internalization was expressed as a percentage of total receptor surface expression calculated using control cells incubated with DMSO (100%). Each column represents the mean (block) ± SD (bars) of n = 3 experiments performed in triplicate. *p < 0.05; **p < 0.01; ***p < 0.005 as compared to chemokine alone. (c,d) Inhibition of CCL17 and CCL22- induced CCR4^+HUT78 T cell chemotaxis by neutraligands. […] The number of migrating cells induced by a chemokine alone was set at 100% migration. The number of migrating cells in the presence of chemokine and compounds were expressed as the corresponding percentages. Results were analyzed by fitting the experimental curves (% of migrating cells vs log compound concentration) using the Kaleidagraph software program, and the corresponding IC50 values were calculated. Means and SD values of triplicates were plotted.
(§7) Human cDNAs encoding CCR4 and CXCR3 receptors were cloned in pIRES plasmid (Clontech) while cDNAs encoding CCR2, CCR5, CXCR2 and CXCR4 receptors were cloned in pCEP4 vector (Life technologies). The receptors are cloned in frame with a signal peptide fused to enhanced green fluorescent protein (EGFP) as described previously. All plasmid constructs were fully sequenced prior to transfections. Human Kidney Embryonic HEK-293 cells (ATCC) were maintained in Minimal Essential Medium (MEM, Invitrogen) supplemented with 10% FCS, penicillin (100 U/ml), streptomycin (100 μg/ml) and L-glutamine (2 mM) (Invitrogen) at 37 °C and 5% CO2. The cells were transfected with pIRES EGFP-CCR4 plasmid using calcium phosphate precipitation method. Stably EGFP-CCR4^+ HEK cells were selected for 5 weeks with geneticin (G-418, 600μg/ml), and resulting cell clones were checked by fluorescence microscopy and FACS analysis. HEK cells stably expressing human CXCR2, CXCR3, CXCR4, CCR5 and CCR2 were generated as described previously.
(§8) Dye loaded cells were placed in the FlexStation 3 (Molecular Devices). Calcium mobilization was measured at 401 and 475 nm emission fluorescence after excitation at 355 nm. For the primary screening, the ligands (50μl of chemokine mixed with DMSO or test compounds) were added to the cells at 40 s, followed by digitonin addition (50μl) at 100 s to the cells. Molecules were screened at a final concentration of 2μg/ml with 5 nM CCL17 or CCL22. […] Raw fluorescence data (at 401 and 475 nm) were exported and the ratio 401/475 was calculated. The calcium response values (height of peak response over baseline) were determined. Hits were selected by comparing the response amplitude at the time of the chemokine addition ± test compound. The Z’ factor[29] was calculated according to the following equation: Z’ = 1-(3SD+ + 3SD−)/|Ave+ − Ave−|, where SD+ and Ave+ are respectively the standard deviation and the mean value of the positive controls (chemokine + DMSO), while SD− and Ave− are respectively the standard deviation and the mean value of the negative controls (HEPES-BSA (0.1%) mixed with DMSO, or cells mixed with C-021). Hit molecules were confirmed by performing concentration-response curves and their half maximal inhibitory concentration (IC50) values were calculated using the Kaleidagraph software.

CCL4 = target: T5, CCL4 (Homo sapiens, UniProt P13236); test: as above; settings: 10 μM compound, 5 nM CCL4, EGFP-CCR5+ HEK cells
T5 construct: purchased R&D systems
T5 sequence (P13236 24-92): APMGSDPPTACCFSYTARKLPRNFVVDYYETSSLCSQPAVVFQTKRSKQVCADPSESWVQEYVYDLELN
Protocol: as §6, §7, §8

CCL5 = target: T6, CCL5 (Homo sapiens, UniProt P13501); test: as above; settings: 10 μM compound, 5 nM CCL5, EGFP-CCR5+ HEK cells
T6 construct: (His)6; made in house; host or cells: E. coli BL21 (DE3)
T6 sequence (P13501 24-91): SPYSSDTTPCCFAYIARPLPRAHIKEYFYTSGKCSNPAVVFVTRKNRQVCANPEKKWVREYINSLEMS
Protocol: as §6, §7, §8

Question: Which “calcium response induced by CCL17 N78V preincubated with compound” value (CCL17 N78V) does the source give for `CC(C)=CCn1cnc2c1c(=O)n(C)c(=O)n2C` [GPN279, 1,3-dimethyl-7-(3-methylbut-2-enyl)-1H-purine-2,6(3H, 7H)-dione] here?
Answer: 75.0 ± 6.0%

Question: And the “calcium response induced by CCL17 R80W preincubated with compound” value (CCL17 R80W)?
Answer: 50.0 ± 11.0%

Question: What about the “calcium response induced by CCL17 S74A preincubated with compound” value (CCL17 S74A) of the same compound?
Answer: no longer acted as a neutralizing molecule

Question: What about the “effect on calcium responses induced by CCL3” value (CCL3) of the same compound?
Answer: no effect

Question: And the “effect on calcium responses induced by CCL4” value (CCL4)?
Answer: no effect

Question: What about the “effect on calcium responses induced by CCL5” value (CCL5) of the same compound?
Answer: no effect

Question: `O=C(OCC(O)CO)c1ccccc1O` (stereo not drawn) [GPN136, 2,3-dihydroxypropyl 2-hydroxybenzoate] was tested. Which “calcium response induced by CCL17 N78V preincubated with compound” value (CCL17 N78V) did it give?
Answer: totally ineffective

Question: And the “calcium response induced by CCL17 R80W preincubated with compound” value (CCL17 R80W)?
Answer: totally ineffective

Question: What about the “calcium response induced by CCL17 S74A preincubated with compound” value (CCL17 S74A) of the same compound?
Answer: totally ineffective

Question: And the “effect on calcium responses induced by CCL3” value (CCL3)?
Answer: no effect

Question: And the “effect on calcium responses induced by CCL4” value (CCL4)?
Answer: no effect

Question: What about the “effect on calcium responses induced by CCL5” value (CCL5) of the same compound?
Answer: no effect
